The results in this text go back to BindingDB's records for doi:10.1016/S1074-5521(99)80072-6 (Ligand Pharmaceuticals Inc, 1999).

pIC50, pKi: −log10 of the molar value. A value given as a limit tells only on which side of the number the result lay.

Test [1] deals with T1, Vitamin D3 receptor (Homo sapiens, UniProt P11473).
T1 sequence (P11473 whole entry): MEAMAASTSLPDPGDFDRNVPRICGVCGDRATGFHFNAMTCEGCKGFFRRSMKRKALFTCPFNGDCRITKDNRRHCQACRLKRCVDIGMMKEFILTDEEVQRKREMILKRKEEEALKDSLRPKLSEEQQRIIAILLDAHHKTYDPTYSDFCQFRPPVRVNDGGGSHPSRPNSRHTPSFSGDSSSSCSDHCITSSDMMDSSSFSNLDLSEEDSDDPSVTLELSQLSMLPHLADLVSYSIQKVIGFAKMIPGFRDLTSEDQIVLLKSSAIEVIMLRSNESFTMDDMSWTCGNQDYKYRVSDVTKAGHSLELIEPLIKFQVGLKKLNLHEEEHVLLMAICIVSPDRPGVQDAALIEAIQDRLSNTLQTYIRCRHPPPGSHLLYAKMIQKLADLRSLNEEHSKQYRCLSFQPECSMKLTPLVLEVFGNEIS
The test can be described thus: VDR Ligand-Binding Assay. Conditions: pH 7.5; 4 °C. An excerpt:
VDR in vitro ligand-binding assay using human VDR constructed into a yeast expression plasmid.

The target of test [2] is T2, Vitamin D-binding protein (Rattus norvegicus, UniProt P04276).
T2 sequence (P04276 whole entry): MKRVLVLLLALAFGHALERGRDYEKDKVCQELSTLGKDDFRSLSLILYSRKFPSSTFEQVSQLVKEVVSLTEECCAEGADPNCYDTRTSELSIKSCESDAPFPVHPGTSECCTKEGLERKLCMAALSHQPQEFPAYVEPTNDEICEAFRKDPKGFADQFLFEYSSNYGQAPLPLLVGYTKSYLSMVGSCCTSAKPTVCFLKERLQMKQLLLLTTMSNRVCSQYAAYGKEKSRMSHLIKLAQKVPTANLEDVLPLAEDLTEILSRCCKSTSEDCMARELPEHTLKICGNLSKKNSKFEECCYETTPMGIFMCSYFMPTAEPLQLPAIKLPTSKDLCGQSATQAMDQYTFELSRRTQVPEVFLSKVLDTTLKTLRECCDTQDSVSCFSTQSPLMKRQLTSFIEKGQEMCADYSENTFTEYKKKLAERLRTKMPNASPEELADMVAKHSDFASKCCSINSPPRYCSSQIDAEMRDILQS
The test can be described thus: DBP Binding Assay. Conditions: pH 7.4; 4 °C. An excerpt: (§1) DBP competition binding assay were done using human serum (Scantibodies) or rat serum (Gibco-BRL).

Test [3] addresses T3, Vitamin D-binding protein (Homo sapiens, UniProt V9HWI6).
T3 sequence (V9HWI6 whole entry): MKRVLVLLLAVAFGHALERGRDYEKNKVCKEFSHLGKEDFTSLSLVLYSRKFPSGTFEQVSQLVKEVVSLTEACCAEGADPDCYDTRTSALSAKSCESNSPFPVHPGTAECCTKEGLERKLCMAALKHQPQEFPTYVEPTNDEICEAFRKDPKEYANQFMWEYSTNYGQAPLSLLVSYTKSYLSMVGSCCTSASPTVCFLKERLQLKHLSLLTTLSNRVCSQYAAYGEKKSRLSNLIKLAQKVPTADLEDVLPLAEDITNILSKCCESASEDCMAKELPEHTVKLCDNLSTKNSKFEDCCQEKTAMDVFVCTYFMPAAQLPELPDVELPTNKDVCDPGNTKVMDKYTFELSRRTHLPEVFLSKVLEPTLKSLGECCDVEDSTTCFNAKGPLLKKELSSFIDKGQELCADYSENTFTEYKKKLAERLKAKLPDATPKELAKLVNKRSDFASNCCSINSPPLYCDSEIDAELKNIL
The test can be described thus: DBP Binding Assay. Conditions: pH 7.4; 4 °C.
From the text: as §1

With `C=C1/C(=C\C=C\C2CCC3(C)C(CCC3C(C)CCCC(C)(C)O)C2)C[C@@H](C)C[C@@H]1C` (some centres not stated) [1,25(OH)2D3], the negative-log Ki (pKi) – broadly, the negative decadic logarithm of the Ki, by convention in mol/L – in test [1] is 9.30. Besides, the figures for the negative logarithm of the IC50 (pIC50) in test [2] and in test [3] were 7.40 and 6.70, respectively.

For `CC(C)(C)C(=O)COc1ccc(C(C)(C)c2ccc(OCC(=O)C(C)(C)C)c(Cl)c2)cc1Cl` [LG190090], the pKi in test [1] was under 6.00. Moreover, the pIC50 (as a rule, the IC50 on a negative log10 scale, so that one unit is a factor of ten) in test [3] was under 6.00.

For the molecule `Cc1cc(C2(c3ccc(OCC(=O)C(C)(C)C)c(C)c3)CCCCC2)ccc1OCC(=O)C(C)(C)C` [LG190119], the negative-log Ki (pKi) in test [1] is under 6.00. In test [3], this molecule had a negative logarithm of the IC50 (pIC50) of under 6.00.

As to `CCC(CC)(c1ccc(OCC(=O)C(C)(C)C)c(C)c1)c1ccc(OCC(=O)C(C)(C)C)c(C)c1` [LG190155], the negative-log Ki (pKi) in test [1] was under 6.00. The pIC50 in test [3] is under 6.00.

Turning to `CCC(CC)(c1ccc(OCC(=O)C(C)(C)C)c(C)c1)c1ccc(OCC2CO2)c(C)c1` (configuration not stated) [LG190176], in test [1], the pKi is under 6.00. The molecule also had a pIC50 in test [3] of under 6.00.

Consider `CCC(CC)(c1ccc(OCC(=O)C(C)(C)C)c(C)c1)c1ccc(OCC(O)CO)c(C)c1` (configuration not stated) [LG190178], for which the pIC50 in test [3] is under 6.00.
